In US20210187085A1, “PHOSPHOLIPASE A2 RECEPTOR ANTIGENS AND THEIR MEDICAL USE” (The University of Manchester, priority 2017, published 2021):
Entries after “also recorded” stand apart in the source; their conditions may differ. Where a SMILES comes first, the peptide text is derived from it. Bridges are numbered along the chain shown (N, C = ends). Where no end group is shown, it is not given here.

Experiments:
anti-PLA2R Mouse 20 Ab [1] = test: Kd 1/s
mouse 20 Ab = test: ELISA analysis of peptide epitope library; assay type: binding; details: 1.5 ng of peptide immobilised, absorbance 450 nm
[2] = test system: human Nottingham patient autoAb; test: PEPperCHIP peptide microarray substitution scan, phase 1; assay type: binding; details: Nottingham patient autoAbs
anti-PLA2R mouse 20 Ab [3] = test: Slot blot analysis with mouse 20 Ab; assay type: binding; details: for interaction with mouse 20 Ab in slot blot: 205 nm NanoDrop and ponceau S staining
Excerpt: Incorporating the 205 nm NanoDrop and ponceau S staining the assessment of the peptide epitope library was undertaken with the mouse 20 Ab.

anti-PLA2R Mouse 20 Ab [4] = test: Ka 1/Ms
anti-PLA2R mouse 20 Ab [5] = test: ProteOn SPR, candidate peptide mouse 20 antibody binding kinetics; details: peptide immobilised on GLC chip, mouse 20 Ab 5-25 nM; for Ka: Langmuir 1:1
human anti-PLA2R autoAbs = test: Slot blot analysis with human anti-PLA2R autoAbs; details: non-reducing conditions, FIG. 1 D

Kd (anti-PLA2R Mouse 20 Ab [1]) [s⁻¹] | Compound | Ka (anti-PLA2R Mouse 20 Ab [4]) [M⁻¹ s⁻¹] | Kd (anti-PLA2R mouse 20 Ab [5]) [nM] | Ka (anti-PLA2R mouse 20 Ab [5]) [M⁻¹ s⁻¹] | other results
0.000134 | CC[C@H](C)[C@@H]1NC(=O)[C@@H](NC(=O)[C@H](CO)NC(=O)[C@H](CCC(=O)O)NC(=O)[C@H](CO)NC(=O)[C@H](CCC(N)=O)NC(=O)[C@@H](NC(=O)[C@@H](N)C(C)C)[C@@H](C)CC)CSSC[C@@H](C(=O)O)NC(=O)[C@H](CC(N)=O)NC(=O)[C@H](CCC(=O)O)NC(=O)[C@H](CC(C)C)NC(=O)[C@H]([C@@H](C)O)NC(=O)[C@H](CC(C)C)NC(=O)[C@H](C(C)C)NC(=O)[C@H](CO)NC(=O)[C@H](CCCCN)NC(=O)CNC(=O)[C@H](C)NC(=O)[C@H](CCC(N)=O)NC1=O [20mer] (H-VIQSESCIQAGKSVLTLENC-OH; disulfide 7-20) | 1.56e+06 | ~0.1 | 1.56e+06 | association with mouse 20 Ab in ELISA (mouse 20 Ab): little to no association; autoAb binding in substitution scan (in words) ([2]; listed as Peptide platform 2c): successfully interact; also recorded: successfully bound; autoAb binding in substitution scan (in words) ([2]; listed as Peptide platform 3c): successfully interact; also recorded: successfully bound; interaction with mouse 20 Ab in slot blot (anti-PLA2R mouse 20 Ab [3]; peptide epitope library): little to no association
9.4e-05 | Head to Tail cyclic: head to tail cyclic 28mer (SEQ ID NO: 74) (KGCFVIQSESLKKSIQAGKSVLTLENCK; head-to-tail cyclisation) [listing 1 of 2 here] | 1.55e+06 |  |  | 
 | Head to Tail cyclic: head to tail cyclic 28mer (SEQ ID NO: 74) (KGCFVIQSESLKKSIQAGKSVLTLENCK; head-to-tail cyclisation) [listing 2 of 2 here] |  | ~0.1 | 1.55e+06 | slot blot staining with human anti-PLA2R autoAbs (human anti-PLA2R autoAbs): stained positive; association with mouse 20 Ab in ELISA (mouse 20 Ab): displayed association; slot blot staining with anti-PLA2R mouse 20 Ab (anti-PLA2R mouse 20 Ab [3]; non-reducing conditions, FIG. 1 D): stained positive; slot blot intensity of interaction with mouse 20 Ab (anti-PLA2R mouse 20 Ab [3]; peptide epitope library): highest intensity; interaction with mouse 20 Ab in slot blot (anti-PLA2R mouse 20 Ab [3]; peptide epitope library, listed as head to tail 28mer): found to interact; also recorded: displayed association
0.000143 | PIDSESLKK [listing 1 of 2 here] | 1.79e+06 |  |  | 
 | PIDSESLKK [listing 2 of 2 here] |  | ~0.1 | 1.79e+06 | 
7.5e-05 | PIQSESLKK [listing 1 of 2 here] | 107000 |  |  | 
 | PIQSESLKK [listing 2 of 2 here] |  | ~0.1 | 107000 | 
5.32e-05 | SVLTLENCK [Peptide 2] | 1.43e+06 | ~0.1 | 1.43e+06 | 
0.00014 | VIDSESLKK [listing 1 of 2 here] | 1.86e+06 |  |  | 
 | VIDSESLKK [listing 2 of 2 here] |  | ~0.1 | 1.86e+06 | 
0.000136 | VIQSESLKK [listing 1 of 2 here] | 2.27e+06 |  |  | 
 | VIQSESLKK [listing 2 of 2 here] |  | ~0.1 | 2.27e+06 | 
